In ChEMBL document CHEMBL1201862, “PubChem BioAssay data set” (2004):
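Following 48 hours of exposure in 96-well plates, responses at five concentrations were used to interpolate endpoints linearly. GI50 is the concentration that inhibits growth by half.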 The source made the active and inactive calls. No stated cut-off is given here; in the data, active = GI50 up to about 1.1 µM and inactive = higher.

Tests used:
Test in all cases: inhibition of tumour cell growth, NCI panel, 48 h
[1] = tested on: 786-0
[2] = tested on: HCC 2998
[3] = tested on: HOP-62
[4] = tested on: HT-29
[5] = tested on: IGROV-1
[6] = tested on: KM12
[7] = tested on: LOX IMVI
[8] = tested on: Malme-3M
[9] = tested on: NCI-H23
[10] = tested on: NCI-H522
[11] = tested on: OVCAR-3
[12] = tested on: SK-OV-3
[13] = tested on: SNB-19
[14] = tested on: SW-620
[15] = tested on: SK-MEL-2

Measured: GI50

COc1ccc(C(=O)CC2=Nc3nnc(CCCCCCCc4nnc5n4C(=O)C(CC(=O)c4ccc(OC)cc4)=N5)n3C2=O)cc1
inactive: [1] > 100 µM | [2] > 100 µM | [3] > 100 µM | [4] > 100 µM | [5] > 100 µM | [6] > 100 µM | [7] > 100 µM | [8] > 100 µM | [9] > 100 µM | [10] > 100 µM | [11] > 100 µM | [12] > 100 µM | [13] > 100 µM | [14] > 100 µM

CCOC(=O)C(=O)CC1=Nc2ccccc2SC(c2cccc(C)c2)C1 (stereo not given)
inactive: [1] 17.9 µM | [2] 16.3 µM | [3] 23.9 µM | [4] 15.5 µM | [5] 18.4 µM | [6] 16.2 µM | [8] 17.3 µM | [9] 17.1 µM | [10] 17.3 µM | [11] 19.5 µM | [15] 16.3 µM | [12] > 10 µM | [13] 18.3 µM | [14] 25.6 µM

N#CC(C(=O)CCCC(=O)Nc1ccc(Cl)cc1Cl)c1ccccc1 (stereo not given)
inactive: [1] > 100 µM | [2] > 100 µM | [3] > 100 µM | [4] > 100 µM | [5] > 100 µM | [6] > 100 µM | [7] > 100 µM | [8] > 100 µM | [9] > 100 µM | [11] > 100 µM | [15] > 100 µM | [12] > 100 µM | [13] > 100 µM | [14] > 100 µM

C/C=C(/CCCCNCCCC)[Si](C)(C)C
inactive: [1] 12.5 µM | [2] 5.66 µM | [4] 3.94 µM | [5] 19.2 µM | [6] 14.5 µM | [7] 14.2 µM | [8] 16.9 µM | [9] 16.1 µM | [10] 11.9 µM | [11] 14.5 µM | [15] 18.7 µM | [12] 18 µM | [13] 17.7 µM | [14] 16.6 µM

Cn1cc(NC(=O)c2cc(NC(=O)Nc3cc(C(=O)Nc4cc(C(=O)NCCC(=N)N)n(C)c4)n(C)c3)cn2C)cc1C(=O)NCCC(=N)N
inactive: [1] 20.7 µM | [2] 48.1 µM | [3] 39.8 µM | [4] > 100 µM | [5] 24.5 µM | [6] 17 µM | [7] 25.4 µM | [8] 24.9 µM | [9] 37.4 µM | [11] 41.1 µM | [12] > 100 µM | [13] > 100 µM | [14] > 100 µM

Nc1nc2c(N)cc(C(F)(F)F)cc2nc1-c1ccccc1
inactive: [1] > 100 µM | [2] > 100 µM | [3] > 100 µM | [5] > 100 µM | [6] > 100 µM | [7] > 100 µM | [8] > 100 µM | [9] > 100 µM | [10] 85.3 µM | [11] > 100 µM | [15] > 100 µM | [12] > 100 µM | [13] > 100 µM | [14] > 100 µM

C=C1CC(C/C=C(\C)CC2CC(=C)C(=O)O2)OC1=O (stereo not given)
inactive: [1] > 100 µM | [2] > 100 µM | [3] > 100 µM | [4] > 100 µM | [5] > 100 µM | [6] > 100 µM | [7] > 100 µM | [8] > 100 µM | [9] > 100 µM | [11] > 100 µM | [15] > 100 µM | [12] > 100 µM | [13] > 100 µM | [14] > 100 µM

CC(=O)O[C@]12CCC[C@H]1C1(O)C(O)CCC[C@H]12 (stereo not given in full)
inactive: [1] > 100 µM | [3] > 100 µM | [4] > 100 µM | [6] > 100 µM | [7] > 100 µM | [8] > 100 µM | [9] > 100 µM | [10] > 100 µM | [15] > 100 µM | [12] > 100 µM | [13] > 100 µM | [14] > 100 µM

COC(CN1C=C(Sc2ccccc2)CC1)OC
inactive: [1] 36.4 µM | [2] 33.9 µM | [3] 47.3 µM | [4] 24.8 µM | [5] 53.2 µM | [6] 23.8 µM | [7] 24.8 µM | [8] 35.9 µM | [9] 23.7 µM | [11] 20.2 µM | [15] 19.4 µM | [12] 37 µM | [13] 37.8 µM | [14] 21.9 µM

CCc1cccc(C(C)C)c1NC(=O)C(=O)C1C(=O)NC(=O)NC1=O
inactive: [1] > 100 µM | [2] > 100 µM | [3] > 100 µM | [4] > 100 µM | [5] > 100 µM | [6] > 100 µM | [7] > 100 µM | [8] > 100 µM | [9] > 100 µM | [10] > 100 µM | [11] > 100 µM | [12] > 100 µM | [13] > 100 µM | [14] > 100 µM

Cc1ccc(-n2c(=S)[nH]c3ccc(Br)cc3c2=O)cc1
inactive: [1] > 100 µM | [2] > 100 µM | [3] > 100 µM | [4] > 100 µM | [5] > 100 µM | [6] > 100 µM | [7] > 100 µM | [8] > 100 µM | [9] > 100 µM | [10] > 100 µM | [11] > 100 µM | [15] > 100 µM | [13] > 100 µM | [14] > 100 µM

CC1CC(=O)C(C(O)CC2CC(=O)N(c3ccccc3)C(=O)C2)C(C)C1 (stereo not given)
inactive: [1] > 100 µM | [2] > 100 µM | [3] > 100 µM | [4] > 100 µM | [5] > 100 µM | [6] > 100 µM | [7] > 100 µM | [8] > 100 µM | [9] > 100 µM | [10] > 100 µM | [11] > 100 µM | [12] > 100 µM | [13] > 100 µM | [14] > 100 µM

c1ccc2c(c1)CCC/C2=N\OCC1CO1 (stereo not given)
inactive: [1] > 100 µM | [2] > 100 µM | [3] > 100 µM | [4] 98.4 µM | [5] > 100 µM | [6] > 100 µM | [7] 36.3 µM | [8] > 100 µM | [9] 80 µM | [11] > 100 µM | [15] 61.2 µM | [12] > 100 µM | [13] > 100 µM | [14] 92.9 µM

COC(=O)C(Cc1cc(OC)c(OC)c(OC)c1)c1ccc(OC)cc1 (stereo not given)
inactive: [1] > 100 µM | [3] > 100 µM | [4] > 100 µM | [5] > 100 µM | [6] > 100 µM | [7] 79.3 µM | [8] > 100 µM | [10] 90.4 µM | [11] 95.7 µM | [13] > 100 µM | [14] > 100 µM
